# Reference: PubChem BioAssay AID686916 (Sanford-Burnham Center for Chemical Genomics, 2013)
# Values joined by “and” are separate entries in the source; they are usually repeats but may differ in a detail not shown here. Equal values may be shown once. Active and inactive are the calls of the source.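 The calls were made as follows: active = concentration halving Nedd8 removal by the CSN enzyme IC50 of 60 µM or lower; inactive = the rest.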
# Biological target: COP9 signalosome complex subunit 5 (Homo sapiens) (UniProt Q92905)
# Sequence (Q92905 whole entry, looked up, one chain of several): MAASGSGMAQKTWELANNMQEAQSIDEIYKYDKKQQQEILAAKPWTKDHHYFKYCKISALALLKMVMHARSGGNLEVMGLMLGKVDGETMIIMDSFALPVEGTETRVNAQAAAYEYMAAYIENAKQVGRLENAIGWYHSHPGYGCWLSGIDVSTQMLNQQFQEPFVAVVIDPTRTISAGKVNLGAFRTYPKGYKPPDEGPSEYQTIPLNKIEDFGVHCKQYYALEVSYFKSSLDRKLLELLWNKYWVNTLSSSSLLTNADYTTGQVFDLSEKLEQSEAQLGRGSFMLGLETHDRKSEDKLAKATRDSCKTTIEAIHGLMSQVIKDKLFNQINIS
# Assay: Csn5 deneddylation inhibitors, retested RPN11 hits, SAR follow-up, selectivity assay for RPN11 inhibitor project, biochemical, fluorescence polarization, SCF-Nedd8-OG substrate, set 2 (AID 686916)
# Conditions: Csn5 deneddylation of SCF-Nedd8-OG
row,Structure (SMILES),IC50
1,COC(=O)c1cnc2c(SSc3cccc4cc(C(=O)OC)cnc34)cccc2c1,20 µM
2,CCOc1ccccc1C(=O)Sc1cccc2cccnc12,11.7 µM and 31.8 µM
3,COC(=O)[C@@H](NC(=O)c1cnc2c(SSc3cccc4cc(C(=O)N[C@H](C(=O)OC)C(C)C)cnc34)cccc2c1)C(C)C,11.8 µM
4,O=C(Sc1cccc2cccnc12)c1ccc(F)cc1,3.12 µM
5,COC(=O)C[C@H](NC(=O)c1cnc2c(SSc3cccc4cc(C(=O)N[C@@H](CC(=O)OC)C(=O)OC)cnc34)cccc2c1)C(=O)OC,13 µM
6,Cc1ccccc1C(=O)Sc1cccc2cccnc12,18.2 µM
7,O=C(Sc1cccc2cccnc12)c1ccccc1[N+](=O)[O-],9.08 µM
8,CC[C@@H](C)[C@H](NC(=O)c1cnc2c(SSc3cccc4cc(C(=O)N[C@H](C(=O)OC)[C@@H](C)CC)cnc34)cccc2c1)C(=O)OC,4.73 µM
9,CC[C@@H](C)[C@H](NC(=O)c1cnc2c(SSc3cccc4cc(C(=O)N[C@H](C(=O)O)[C@H](C)CC)cnc34)cccc2c1)C(=O)O,8.57 µM
10,O=C(Sc1cccc2cccnc12)c1cccc(C(F)(F)F)c1,> 95 µM (inactive)
11,O=C(Sc1cccc2cccnc12)c1ccccc1Br,7.91 µM
12,O=C(Sc1cccc2cccnc12)c1ccc(F)cc1F,24.6 µM
13,O=C(Sc1cccc2cccnc12)c1c(Cl)cccc1Cl,17.4 µM
14,O=C(O)[C@@H]1CCCN1C(=O)c1cnc2c(SSc3cccc4cc(C(=O)N5CCC[C@H]5C(=O)O)cnc34)cccc2c1,6.36 µM
15,Cc1cccc(C(=O)Sc2cccc3cccnc23)c1,12.3 µM
16,O=C(Sc1cccc2cccnc12)c1ccccc1,11.2 µM
17,CC(C)[C@H](NC(=O)c1cnc2c(SSc3cccc4cc(C(=O)N[C@H](C(=O)O)C(C)C)cnc34)cccc2c1)C(=O)O,8.35 µM
18,COC(=O)[C@H](CO)NC(=O)c1cnc2c(SSc3cccc4cc(C(=O)N[C@@H](CO)C(=O)OC)cnc34)cccc2c1,36.2 µM
19,N#Cc1cccc(C(=O)Sc2cccc3cccnc23)c1,33.3 µM
20,COc1cccc(C(=O)Sc2cccc3cccnc23)c1,5.57 µM
21,O=C(Sc1cccc2cccnc12)c1ccccc1OC(F)(F)F,17.8 µM
22,O=C(Sc1cccc2cccnc12)c1ccccc1Cl,19.9 µM
23,O=C(Sc1cccc2cccnc12)c1ccc([N+](=O)[O-])cc1,13 µM
24,O=C(Sc1cccc2cccnc12)c1ccccc1F,> 95 µM (inactive)
25,COc1ccc(C(=O)Sc2cccc3cccnc23)cc1F,5 µM
26,CC(C)Cc1ccc(C(=O)Sc2cccc3cccnc23)cc1,15.6 µM

# Next, values leading:
row,IC50,Structure (SMILES)
1,4.28 µM,O=C(O)c1cnc2c(SSc3cccc4cc(C(=O)O)cnc34)cccc2c1
2,> 95 µM (inactive),N#Cc1ccc(C(=O)Sc2cccc3cccnc23)cc1
3,26.4 µM,CC(C)(C)OC(=O)CCNC(=O)c1cnc2c(SSc3cccc4cc(C(=O)NCCC(=O)OC(C)(C)C)cnc34)cccc2c1
4,12.8 µM,COC(=O)[C@H](C)N(C)C(=O)c1cnc2c(SSc3cccc4cc(C(=O)N(C)[C@@H](C)C(=O)OC)cnc34)cccc2c1
5,2.63 µM,O=C(Sc1cccc2cccnc12)c1cccc(Cl)c1
6,13.9 µM,COC(=O)[C@H](CC(C)C)NC(=O)c1cnc2c(SSc3cccc4cc(C(=O)N[C@@H](CC(C)C)C(=O)OC)cnc34)cccc2c1
7,5.25 µM,O=C(Sc1cccc2cccnc12)c1ccc(C(F)(F)F)cc1
8,22.2 µM,COC(=O)[C@H](C)NC(=O)c1ccnc2c(SSc3cccc4c(C(=O)N[C@@H](C)C(=O)OC)ccnc34)cccc12
9,13 µM,C[C@@H](C(=O)O)N(C)C(=O)c1cnc2c(SSc3cccc4cc(C(=O)N(C)[C@@H](C)C(=O)O)cnc34)cccc2c1
10,19.4 µM,O=C(Sc1cccc2cccnc12)c1ccccc1I
11,14.3 µM,O=C(Sc1cccc2cccnc12)c1cccc2ccccc12
12,20.3 µM,COC(=O)[C@H](C)NC(=O)c1cnc2c(SSc3cccc4cc(C(=O)N[C@@H](C)C(=O)OC)cnc34)cccc2c1
13,11.8 µM,CC(C)C[C@H](NC(=O)c1cnc2c(SSc3cccc4cc(C(=O)N[C@@H](CC(C)C)C(=O)O)cnc34)cccc2c1)C(=O)O
14,20.7 µM and 5.61 µM,COc1ccccc1C(=O)Sc1cccc2cccnc12
15,40.1 µM,O=C(Sc1cccc2cccnc12)c1ccc2c(c1)OCO2
16,4.07 µM,O=C(Sc1cccc2cccnc12)C1CCCCC1
17,4.92 µM,O=C(Sc1cccc2cccnc12)c1ccc(F)c(F)c1
18,10.4 µM,CCCc1ccc(C(=O)Sc2cccc3cccnc23)cc1
19,17.6 µM,COC(=O)[C@@H]1CCCN1C(=O)c1cnc2c(SSc3cccc4cc(C(=O)N5CCC[C@H]5C(=O)OC)cnc34)cccc2c1
20,> 95 µM (inactive),Cc1ccc(C(=O)Sc2cccc3cccnc23)cc1
21,14.3 µM,COc1ccc(C(=O)Sc2cccc3cccnc23)cc1OC
22,13.7 µM,COc1ccc(C(=O)Sc2cccc3cccnc23)cc1
